Measured values published in ChEMBL document CHEMBL3885861, “Open TG-GATES”.

Organism: Rattus norvegicus
Test: Open TG-GATES - Regimen: Daily Repeat
Type: toxicity, organism-based, Sprague-Dawley
Design: regimen Daily Repeat, gender Male, age 6 weeks
Conditions: in vivo, po, route gavage; for APTT / Bas / Eos / Fbg / Hb / Ht / Lym / MCH / MCHC / MCV / Mono / Neu / PT / Plat / RBC / Ret / WBC: tissue Blood; for KIDNEY_L / KIDNEY_R / KIDNEY_TOTAL: tissue Kidney; for LIVER: tissue Liver; for A/G / ALP / ALT / AST / BUN / CRE / Ca / Cl / DBIL / GLC / IP / K / LDH / Na / PL / RALB / TBIL / TC / TG / TP / gamma-GTP: tissue Plasma
[1] = 50 mg/kg, 72 h, dose level Middle, time 3 day
[2] = 50 mg/kg, […], dose level Middle, time 7 day
[3] = 50 mg/kg, […], dose level Middle, time 14 day
[4] = 50 mg/kg, […], dose level Middle, time 28 day
[5] = 150 mg/kg, 72 h, dose level High, time 3 day
[6] = 150 mg/kg, […], dose level High, time 7 day
[7] = 150 mg/kg, […], dose level High, time 14 day
[8] = 150 mg/kg, […], dose level High, time 28 day

## Nc1nc(N)c2nc(-c3ccccc3)c(N)nc2n1
[1]
  TERMINAL_BW: 241.1 g
  APTT: 15.9 s
  Bas: 0%
  Eos: 1%
  Fbg: 334.2 mg/dL
  Hb: 13.9 g/dL
  Ht: 40.9%
  Lym: 74.4%
  MCH: 21.2 pg
  MCHC: 34.2%
  MCV: 62.1 fL
  Mono: 2.8%
  Neu: 21.4%
  PT: 13.8 s
  Plat: 119.3 x10_4/uL
  RBC: 658 x10_4/ul
  Ret: 5.6%
  WBC: 93.5 x10_2/uL
  KIDNEY_L: 1.1 g
  KIDNEY_R: 1.1 g
  KIDNEY_TOTAL: 2.2 g
  LIVER: 11.5 g
  A/G: 0.9
  ALP: 1521.8 IU/L
  ALT: 42.2 IU/L
  AST: 65.2 IU/L
  BUN: 15.2 mg/dL
  CRE: 0.2 mg/dL
  Ca: 10.9 mg/dL
  Cl: 105.4 meq/L
  DBIL: 0.008 mg/dL
  GLC: 175 mg/dL
  IP: 8.2 mg/dL
  K: 3.9 meq/L
  LDH: 56.2 IU/L
  Na: 143.6 meq/L
  PL: 166.2 mg/dL
  RALB: 2.6 g/dL
  TBIL: 0.04 mg/dL
  TC: 85 mg/dL
  TG: 126.2 mg/dL
  TP: 5.5 g/dL
  gamma-GTP: 1 IU/L
[2]
  TERMINAL_BW: 280.2 g
  APTT: 16.3 s
  Bas: 0%
  Eos: 1%
  Fbg: 335.4 mg/dL
  Hb: 13.8 g/dL
  Ht: 42.3%
  Lym: 77.8%
  MCH: 20.2 pg
  MCHC: 32.6%
  MCV: 62.1 fL
  Mono: 2%
  Neu: 18.6%
  PT: 13.9 s
  Plat: 134.1 x10_4/uL
  RBC: 680.6 x10_4/ul
  Ret: 5.3%
  WBC: 121.8 x10_2/uL
  KIDNEY_L: 1.2 g
  KIDNEY_R: 1.2 g
  KIDNEY_TOTAL: 2.4 g
  LIVER: 12.7 g
  A/G: 0.9
  ALP: 1449.6 IU/L
  ALT: 46.8 IU/L
  AST: 66.6 IU/L
  BUN: 17.6 mg/dL
  CRE: 0.2 mg/dL
  Ca: 11 mg/dL
  Cl: 106 meq/L
  DBIL: 0.012 mg/dL
  GLC: 179 mg/dL
  IP: 7.7 mg/dL
  K: 4.3 meq/L
  LDH: 60 IU/L
  Na: 142.4 meq/L
  PL: 154.6 mg/dL
  RALB: 2.6 g/dL
  TBIL: 0.07 mg/dL
  TC: 77.2 mg/dL
  TG: 128.2 mg/dL
  TP: 5.5 g/dL
  gamma-GTP: 1.2 IU/L
[3]
  TERMINAL_BW: 333.9 g
  APTT: 18.2 s
  Bas: 0.2%
  Eos: 1%
  Fbg: 312.2 mg/dL
  Hb: 14.5 g/dL
  Ht: 44.6%
  Lym: 80.6%
  MCH: 19.6 pg
  MCHC: 32.6%
  MCV: 59.9 fL
  Mono: 2.6%
  Neu: 15.4%
  PT: 12.9 s
  Plat: 127.2 x10_4/uL
  RBC: 744.2 x10_4/ul
  Ret: 4.2%
  WBC: 93 x10_2/uL
  KIDNEY_L: 1.3 g
  KIDNEY_R: 1.3 g
  KIDNEY_TOTAL: 2.6 g
  LIVER: 14.7 g
  A/G: 0.9
  ALP: 1311.6 IU/L
  ALT: 43.2 IU/L
  AST: 64.2 IU/L
  BUN: 18 mg/dL
  CRE: 0.2 mg/dL
  Ca: 10.6 mg/dL
  Cl: 104.8 meq/L
  DBIL: 0.014 mg/dL
  GLC: 191.8 mg/dL
  IP: 8.1 mg/dL
  K: 3.7 meq/L
  LDH: 69.6 IU/L
  Na: 144.4 meq/L
  PL: 149.2 mg/dL
  RALB: 2.7 g/dL
  TBIL: 0.07 mg/dL
  TC: 70.2 mg/dL
  TG: 137 mg/dL
  TP: 5.9 g/dL
  gamma-GTP: 1 IU/L
[4]
  TERMINAL_BW: 402.9 g
  APTT: 18.2 s
  Bas: 0.4%
  Eos: 1.4%
  Fbg: 283.2 mg/dL
  Hb: 15.4 g/dL
  Ht: 45.4%
  Lym: 80%
  MCH: 19.1 pg
  MCHC: 33.9%
  MCV: 56.2 fL
  Mono: 1.6%
  Neu: 16.2%
  PT: 13.5 s
  Plat: 105.5 x10_4/uL
  RBC: 807 x10_4/ul
  Ret: 2.4%
  WBC: 101.1 x10_2/uL
  KIDNEY_L: 1.4 g
  KIDNEY_R: 1.4 g
  KIDNEY_TOTAL: 2.8 g
  LIVER: 15.8 g
  A/G: 0.8
  ALP: 1251 IU/L
  ALT: 39.2 IU/L
  AST: 62.4 IU/L
  BUN: 17.6 mg/dL
  CRE: 0.2 mg/dL
  Ca: 10.7 mg/dL
  Cl: 104.2 meq/L
  DBIL: 0.014 mg/dL
  GLC: 188.2 mg/dL
  IP: 6.7 mg/dL
  K: 3.8 meq/L
  LDH: 52.6 IU/L
  Na: 143.6 meq/L
  PL: 139.2 mg/dL
  RALB: 2.7 g/dL
  TBIL: 0.06 mg/dL
  TC: 64.6 mg/dL
  TG: 154 mg/dL
  TP: 6.1 g/dL
  gamma-GTP: 1 IU/L
[5]
  TERMINAL_BW: 243.7 g
  APTT: 16.1 s
  Bas: 0%
  Eos: 1%
  Fbg: 366.6 mg/dL
  Hb: 13.8 g/dL
  Ht: 40.7%
  Lym: 76.6%
  MCH: 21 pg
  MCHC: 33.8%
  MCV: 62 fL
  Mono: 2.8%
  Neu: 18.8%
  PT: 14 s
  Plat: 131.8 x10_4/uL
  RBC: 657.6 x10_4/ul
  Ret: 5.1%
  WBC: 90.9 x10_2/uL
  KIDNEY_L: 1 g
  KIDNEY_R: 1.1 g
  KIDNEY_TOTAL: 2.1 g
  LIVER: 11.3 g
  A/G: 0.9
  ALP: 1846.8 IU/L
  ALT: 44 IU/L
  AST: 67.2 IU/L
  BUN: 17.6 mg/dL
  CRE: 0.2 mg/dL
  Ca: 11.1 mg/dL
  Cl: 105.8 meq/L
  DBIL: 0.008 mg/dL
  GLC: 180.6 mg/dL
  IP: 7.9 mg/dL
  K: 3.9 meq/L
  LDH: 59 IU/L
  Na: 143.6 meq/L
  PL: 171 mg/dL
  RALB: 2.6 g/dL
  TBIL: 0.032 mg/dL
  TC: 90.6 mg/dL
  TG: 120.8 mg/dL
  TP: 5.6 g/dL
  gamma-GTP: 1 IU/L
[6]
  TERMINAL_BW: 274.8 g
  APTT: 16.4 s
  Bas: 0.2%
  Eos: 1%
  Fbg: 354.2 mg/dL
  Hb: 13.5 g/dL
  Ht: 41.1%
  Lym: 78.2%
  MCH: 20.1 pg
  MCHC: 32.8%
  MCV: 61.2 fL
  Mono: 2.4%
  Neu: 18.2%
  PT: 14.1 s
  Plat: 132.7 x10_4/uL
  RBC: 672.4 x10_4/ul
  Ret: 5.4%
  WBC: 114.8 x10_2/uL
  KIDNEY_L: 1.3 g
  KIDNEY_R: 1.3 g
  KIDNEY_TOTAL: 2.6 g
  LIVER: 12.6 g
  A/G: 0.9
  ALP: 1286 IU/L
  ALT: 41.2 IU/L
  AST: 63.2 IU/L
  BUN: 18.8 mg/dL
  CRE: 0.2 mg/dL
  Ca: 11 mg/dL
  Cl: 104.2 meq/L
  DBIL: 0.014 mg/dL
  GLC: 188 mg/dL
  IP: 7.7 mg/dL
  K: 4 meq/L
  LDH: 62 IU/L
  Na: 143 meq/L
  PL: 149.6 mg/dL
  RALB: 2.6 g/dL
  TBIL: 0.072 mg/dL
  TC: 77 mg/dL
  TG: 126.8 mg/dL
  TP: 5.6 g/dL
  gamma-GTP: 1.2 IU/L
[7]
  TERMINAL_BW: 323.6 g
  APTT: 20.2 s
  Bas: 0%
  Eos: 1%
  Fbg: 329.6 mg/dL
  Hb: 14.2 g/dL
  Ht: 43.2%
  Lym: 77.4%
  MCH: 19.5 pg
  MCHC: 33%
  MCV: 59.1 fL
  Mono: 2.2%
  Neu: 18.8%
  PT: 13 s
  Plat: 113.5 x10_4/uL
  RBC: 730.6 x10_4/ul
  Ret: 3.3%
  WBC: 94.3 x10_2/uL
  KIDNEY_L: 1.4 g
  KIDNEY_R: 1.4 g
  KIDNEY_TOTAL: 2.8 g
  LIVER: 13.2 g
  A/G: 0.8
  ALP: 1273.4 IU/L
  ALT: 41.6 IU/L
  AST: 66.4 IU/L
  BUN: 21.4 mg/dL
  CRE: 0.3 mg/dL
  Ca: 10.4 mg/dL
  Cl: 105.8 meq/L
  DBIL: 0.012 mg/dL
  GLC: 185.2 mg/dL
  IP: 7.5 mg/dL
  K: 3.7 meq/L
  LDH: 58.2 IU/L
  Na: 145 meq/L
  PL: 143.2 mg/dL
  RALB: 2.7 g/dL
  TBIL: 0.07 mg/dL
  TC: 75 mg/dL
  TG: 101.6 mg/dL
  TP: 5.9 g/dL
  gamma-GTP: 1.2 IU/L
[8]
  TERMINAL_BW: 378.7 g
  APTT: 18.6 s
  Bas: 0.4%
  Eos: 1%
  Fbg: 320 mg/dL
  Hb: 15 g/dL
  Ht: 44.1%
  Lym: 78.8%
  MCH: 18.6 pg
  MCHC: 33.9%
  MCV: 54.9 fL
  Mono: 2.2%
  Neu: 16.8%
  PT: 13.3 s
  Plat: 127.8 x10_4/uL
  RBC: 803.2 x10_4/ul
  Ret: 2.1%
  WBC: 110.6 x10_2/uL
  KIDNEY_L: 1.7 g
  KIDNEY_R: 1.7 g
  KIDNEY_TOTAL: 3.4 g
  LIVER: 14.1 g
  A/G: 0.8
  ALP: 1120 IU/L
  ALT: 41.8 IU/L
  AST: 65.6 IU/L
  BUN: 21.4 mg/dL
  CRE: 0.3 mg/dL
  Ca: 10.7 mg/dL
  Cl: 106 meq/L
  DBIL: 0.008 mg/dL
  GLC: 178.2 mg/dL
  IP: 6.7 mg/dL
  K: 3.7 meq/L
  LDH: 44.6 IU/L
  Na: 144.8 meq/L
  PL: 160.4 mg/dL
  RALB: 2.7 g/dL
  TBIL: 0.064 mg/dL
  TC: 85.2 mg/dL
  TG: 106.2 mg/dL
  TP: 6.1 g/dL
  gamma-GTP: 1.4 IU/L
